Assays:
786-0 = assay: NCI human cancer cell line growth inhibition: 786-0 (Renal); type: cell-based; conditions: Homo sapiens
UO-31 = assay: NCI human cancer cell line growth inhibition: UO-31 (Renal); type: cell-based; conditions: Homo sapiens
HL-60(TB) = assay: cells; type: cell-based, human; conditions: Homo sapiens, HL-60, read-out: Growth inhibition (GI50)
PKCδ-C1B = molecular target: T1, PKCδ-C1B (Mus musculus, UniProt P28867); assay: PKCδ-C1B assay; type: binding
T1 construct: made in house
Protocol: Phosphatidyl serine vesicles are prepared by the addition of phosphatidyl serine (10 mg/mL in chloroform, 0.4 mL) to a glass test tube followed by removal of the chloroform under a stream of nitrogen (5 min). […] The resulting solution is stored over ice. […] Stock solutions of compounds are diluted with absolute ethanol in glass in serial fashion. […] The tubes are incubated at 37° C. for 90 min. and then put on ice for 5 min. Each tube is then filtered separately through a pre-soaked filter disc. […] The filter is subsequently rinsed with cold 20 mM TRIS buffer (5 mL) dropwise. […] The filters are immediately counted in a scintillation counter (Beckman LS 6000SC). Counts per minute are averaged among three trials at each concentration.

SW-620 = assay: NCI human cancer cell line growth inhibition: SW-620 (Colon); type: cell-based; conditions: Homo sapiens
RPMI-8226 = assay: NCI human cancer cell line growth inhibition: RPMI-8226 (Leukemia); type: cell-based; conditions: Homo sapiens
SF-539 = assay: NCI human cancer cell line growth inhibition: SF-539 (CNS); type: cell-based; conditions: Homo sapiens
CAKI-1 = assay: NCI human cancer cell line growth inhibition: CAKI-1 (Renal); type: cell-based; conditions: Homo sapiens
SK-MEL-28 = assay: NCI human cancer cell line growth inhibition: SK-MEL-28 (Melanoma); type: cell-based; conditions: Homo sapiens
SK-MEL-5 = assay: NCI human cancer cell line growth inhibition: SK-MEL-5 (Melanoma); type: cell-based; conditions: Homo sapiens
SNB-19 = assay: NCI human cancer cell line growth inhibition: SNB-19 (CNS); type: cell-based; conditions: Homo sapiens
IGROVI = assay: NCI human cancer cell line growth inhibition: IGROVI (Ovarian); type: cell-based; conditions: Homo sapiens

T1 sequence (P28867 231-281 limits assumed): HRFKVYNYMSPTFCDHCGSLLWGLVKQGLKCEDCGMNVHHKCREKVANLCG

`CCCCCCCC(=O)O[C@H]1/C(=C/C(=O)OC)C[C@H]2C[C@H](CO)OC(=O)C[C@H](O)C[C@@H]3CCC[C@H](C[C@@H]4CCO[C@H](/C=C/C(C)(C)[C@]1(O)O2)O4)O3` [Formula IIa (702.1)] was tested, and the GI50 (786-0) was 3.47 µM, the GI50 (UO-31) was 14.1 µM and the GI50 (HL-60(TB)) was 1450 nM. The Ki (PKCδ-C1B) was 0.3 ± 0.07 nM, the “activity in PKCδ-C1B assay compared with the corresponding C26 methyl-containing analogue” value (PKCδ-C1B; vs Formula 1998a where R^3 is OH) was “significantly higher activity” and the GI50 (SW-620) was 7.59 µM. The GI50 (RPMI-8226) was 1510 nM, the GI50 (SF-539) was 1700 nM and the GI50 (CAKI-1) was 2000 nM. The GI50 (SK-MEL-28) was 21.4 µM, the GI50 (SK-MEL-5) was 372 nM and the GI50 (SNB-19) was 6.31 µM. It also gave a GI50 (IGROVI) of 13.2 µM.

From patent US8735609B2, “Bryostatin analogues, synthetic methods and uses” (The Board of Trustees of the Leland Stanford Junior …, priority 2007, dated 2014)
